Values after ≈ are worked out from the molar mass of the structure shown. Where two headings read alike, the source gives them in different places.

Data on 13 compounds can be found in patent US12612354B2, “Cyclopentenones derivatives and their use as antibiotics” (Centre National de la Recherche Scientifique (CNRS), priority 2020, dated 2026).

What all share (format): cell-based
Assay [1] relates to Staphylococcus aureus ATCC 25923. The assay is described as follows: Kirby-Bauer disk diffusion susceptibility test (inhibition zone). To be noted: S. aureus ATCC 25923; 12.5, 25, 50 and 100 μg per disc; FIG. 1. The procedure:
FIG. 1: Kirby-Bauer Disk diffusion susceptibility test on Staphylococcus aureus ATCC 25923 with compounds Ia, Ib and Ic at 12.5, 25, 50 and 100 μg and the reference gentamicin at 10 μg; left: graph representing the diameter of the inhibition zone as a function of each sample; right: photo of the petri dish illustrating the inhibition zones with Ic at 12.5, 25, 50 and 100 μg.
(§1) Pathogenic bacteria were revived by streaking bacteria on 100 mm Petri dishes containing the suitable medium recommended by ATCC protocol, overnight at 30 to 37° C.: Luria-Bertani Broth (LB, Difco, Thermo Fisher Scientific Inc.), Tryptic Soy Broth (TSB, Difco, Thermo Fisher Scientific Inc.), Nutrient Broth (NB, Difco, Thermo Fisher Scientific Inc.), supplemented with 2% of agar (Granulated Agar, Difco, Thermo Fisher Scientific Inc.).
(§2) For each pathogen, several colonies were collected with a loop and transferred in 5 ml of sterile NB medium and incubated on a rotary shaker (130 rpm) overnight at 30 to 37° C.
(§3) 150 mm Nutrient Broth Agar plates were swabbed with inocula and kept for 15 min for absorption. Pre-sterilized six-millimeter Whatman No. 1 discs were placed in the Petri dishes and 12.5, 25, 50 and 100 μg of the test compounds in DMSO (10 mg/ml) were applied to the sterile disc papers. The standard drug gentamycin (10 μg) was used as a positive reference standard to determine the sensitivity of each bacterial species and DMSO as a negative control. Then the plates were incubated at 30° or 37° C. for 24 h and inhibition diameters were measured.
Compounds Ia to Ic have also been tested on the following pathogenic bacteria in order to evaluate their inhibition efficacy by the Petri dish inhibition zone method: • Staphylococcus aureus ATCC 25923—Gram-positive (compounds Ia, Ib and Ic tested) • Enterobacter cloacae ATCC 13047—Gram-negative (compounds Ia and Ib tested) • Acinetobacter baumannii ATCC 19606—Gram-negative (compounds Ib and Ic tested) • Escherichia coli ATCC 25922—Gram-negative (compounds Ia and Ib tested) […]
A general note: A growth-free zone around the sample is the usual read-out of agar diffusion tests.

In assay [2] the test system is Bacillus subtilis ATCC6633. The assay is described as follows: Petri dish inhibition zone method, % inhibition of growth. To be noted: 24 h, 100 μg of compound. The procedure:
(§4) Pathogenic bacteria were revived by streaking bacteria on 100 mm Petri dishes containing the suitable medium recommended by ATCC protocol, overnight at 30 to 37° C.: Luria-Bertani Broth (LB, Difco, Thermo Fisher Scientific Inc.), Tryptic Soy Broth (TSB, Difco, Thermo Fisher Scientific Inc.), Nutrient Broth (NB, Difco, Thermo Fisher Scientific Inc.), supplemented with 2% of agar (Granulated Agar, Difco, Thermo Fisher Scientific Inc.). For each pathogen, several colonies were collected with a loop and transferred in 5 ml of sterile NB medium and incubated on a rotary shaker (130 rpm) overnight at 30 to 37° C. 150 mm Nutrient Broth Agar plates were swabbed with inocula and kept for 15 min for absorption. Pre-sterilized six-millimeter Whatman No. 1 discs were placed in the Petri dishes and 12.5, 25, 50 and 100 μg of the test compounds in DMSO (10 mg/ml) were applied to the sterile disc papers. The standard drug gentamycin (10 μg) was used as a positive reference standard to determine the sensitivity of each bacterial species and DMSO as a negative control. Then the plates were incubated at 30° or 37° C. for 24 h and inhibition diameters were measured. Compounds Ib, Ic, Ij, Ik, Il, Im, Ih, Ig, Ii, Id and If have also been tested on the following pathogenic bacteria in order to evaluate their inhibition efficacy by the Petri dish inhibition zone method: • Micrococcus luteus ATCC10240; • Bacillus subtilis ATCC6633; • Escherichia coli ATCC 25922. The percentage of inhibition growth at 100 μg of each tested compound has been determined.

Assay [3] has as its system Micrococcus luteus ATCC10240. Described as above. As to conditions: 24 h, 100 μg of compound. As for the experimental part: as §4
The subject of assay [4] is Escherichia coli ATCC 25922. The assay is described as follows: Kirby-Bauer disk diffusion susceptibility test (inhibition zone). To be noted: for inhibition activity (inhibition zone): 12.5, 25, 50 and 100 μg per disc, FIG. 4; for inhibition of growth at 100 µg/disc: ATCC25922, 24 h, 100 μg of compound. The procedure:
FIG. 4: Kirby-Bauer Disk diffusion susceptibility test on Escherichia coli ATCC 25922 with compounds Ia and Ib at 12.5, 25, 50 and 100 μg and the reference gentamicin at 10 μg; left: graph representing the diameter of the inhibition zone as a function of each sample; right: photo of the petri dish illustrating the inhibition zones with Ia at 12.5, 25, 50 and 100 μg.
as §1, §2, §3
Compounds Ia to Ic have also been tested on the following pathogenic bacteria in order to evaluate their inhibition efficacy by the Petri dish inhibition zone method: • Staphylococcus aureus ATCC 25923—Gram-positive (compounds Ia, Ib and Ic tested) • Enterobacter cloacae ATCC 13047—Gram-negative (compounds Ia and Ib tested) • Acinetobacter baumannii ATCC 19606—Gram-negative (compounds Ib and Ic tested) • Escherichia coli ATCC 25922—Gram-negative (compounds Ia and Ib tested)
This technique enables to visualize the potential for inhibiting the growth of target pathogenic bacteria. A dose-response study at 12.5, 25, 50 and 100 μg of each compound has been carried out, comparing the inhibition zones with 10 μg gentamicin. […] Best results are obtained for Gran negative bacteria, especially Enterobacter cloacae as represented on FIG. 2.
Compounds Ib, Ic, Ij, Ik, Il, Im, Ih, Ig, Ii, Id and If have also been tested on the following pathogenic bacteria in order to evaluate their inhibition efficacy by the Petri dish inhibition zone method: • Micrococcus luteus ATCC10240; • Bacillus subtilis ATCC6633; • Escherichia coli ATCC 25922.
The percentage of inhibition growth at 100 μg of each tested compound has been determined.

The test system of assay [5] is Enterobacter cloacae ATCC 13047. Described as above. As to conditions: 12.5, 25, 50 and 100 μg per disc, FIG. 2. The procedure: FIG. 2: Kirby-Bauer Disk diffusion susceptibility test on Enterobacter cloacae ATCC 13047 with compounds Ia and Ib at 12.5, 25, 50 and 100 μg and the reference gentamicin at 10 μg; left: graph representing the diameter of the inhibition zone as a function of each sample; right: photo of the petri dish illustrating the inhibition zones with Ia at 12.5, 25, 50 and 100 μg.
as §1, §2
(§5) 150 mm Nutrient Broth Agar plates were swabbed with inocula and kept for 15 min for absorption. Pre-sterilized six-millimeter Whatman No. 1 discs were placed in the Petri dishes and 12.5, 25, 50 and 100 μg of the test compounds in DMSO (10 mg/ml) were applied to the sterile disc papers. […] Then the plates were incubated at 30° or 37° C. for 24 h and inhibition diameters were measured. […]

Assay [6] has as its system Staphylococcus aureus ATCC 25923. The assay is described as follows: Minimum inhibitory concentration (MIC), microbroth dilution assay. As to conditions: Mueller-Hinton broth. The procedure:
(§6) Pathogenic bacteria were revived by streaking bacteria on 100 mm Petri dishes containing the suitable medium recommended by ATCC protocol, overnight at 30 to 37° C.: Luria-Bertani Broth (LB, Difco, Thermo Fisher Scientific Inc.), Tryptic Soy Broth (TSB, Difco, Thermo Fisher Scientific Inc.), Nutrient Broth (NB, Difco, Thermo Fisher Scientific Inc.), supplemented with 2% of agar (Granulated Agar, Difco, Thermo Fisher Scientific Inc.)
(§7) For each pathogen, several colonies were collected with a loop and transfered in 10 ml of sterile Mueller-Hinton broth (Sigma) medium and incubated on a rotary shaker (130 rpm) […] at 30 to 37° C. The OD at 600 nm was measured and adjusted to 0.5 OD, then the solution was diluted 400-fold to have the appropriate inoculum
(§8) The antimicrobial susceptibility was carried out by microbroth dilution assay. Tests were performed on 96-well plates with 100 μL of Mueller-Hinton broth (Sigma) medium final volume and a final bacterial concentration of 5.10^5 CUF/ml. The tested compounds were solubilized in dimethyl sulfoxide (DMSO) given 10 mg/mL (then expressed in μM) stock solution. The stock solutions were diluted from 100 μg/ml to 0.195 μg/ml for testing.
(§9) Compounds Ia to Ie have also been tested on Staphylococcus aureus ATCC 25923 strain and Staphylococcus aureus BAA-1766 (MRSA) strain (both Gram-positive) by using the screening method of the measurement of MIC (minimum inhibitory concentration).
(§10) This technique enables to determine the minimum concentration that causes total inhibition of the growth of the target pathogen.

Assay [7] concerns Staphylococcus aureus BAA-1766 (MRSA). Described as above. To be noted: S. aureus BAA-1766 (MRSA), Mueller-Hinton broth. The procedure:
as §6, §7, §8, §9, §10

Assay [8] deals with Acinetobacter baumannii ATCC 19606. The assay is described as follows: Kirby-Bauer disk diffusion susceptibility test (inhibition zone). To be noted: 12.5, 25, 50 and 100 μg per disc, FIG. 3. The procedure:
FIG. 3: Kirby-Bauer Disk diffusion susceptibility test on Acinetobacter baumanii ATCC 19606 with compounds Ib and Ic at 12.5, 25, 50 and 100 μg and the reference gentamicin at 10 μg; left: graph representing the diameter of the inhibition zone as a function of each sample; right: photo of the petri dish illustrating the inhibition zones with Ib and Ic at 12.5, 25, 50 and 100 μg.
as §1, §2, §5

Where [9] appears, read: Staphylococcus aureus, ATCC25923, S. aureus ATCC 25923, read-out: MIC.

One may read the inhibition of growth as how much of the control response was suppressed. High values mean strong suppression, low ones little suppression. The term MIC denotes the lowest concentration found to suppress growth. In the case of `O=C1C=C[C@H](O)[C@H]1c1ccc(Cl)cc1` (racemic) [Ib], the “inhibition activity (inhibition zone)” value in assay [1], in assay [4], in assay [5] and in assay [8] was “inhibition activity” in each case. Moreover, the inhibition of growth at 100 µg/disc worked out at 51% in assay [2], 68% in assay [3] and 60% in assay [4]. Moreover, the values for the minimal inhibitory concentration (MIC) in assay [6] (setting [9]) and in assay [7] were 12.5 µg/mL (≈ 59.9 µM) and 18.8 µg/mL (≈ 89.9 µM), respectively.
Consider `O=C1C=C[C@H](O)[C@H]1c1ccccc1Cl` (racemic) [Ic], for which the “inhibition activity (inhibition zone)” value in assay [1] and in assay [8] was “inhibition activity” in each case. Besides, the inhibition of growth at 100 µg/disc in assay [2] is 31%; in assay [3] it was 33%; in assay [4], 35%. Also, the minimal inhibitory concentration (MIC) in assay [6] (S. aureus ATCC 25923) stood at 6.26 µg/mL (≈ 30 µM); in assay [6] (setting [9]), 6.25 µg/mL (≈ 30 µM); in assay [7], 37.5 µg/mL (≈ 180 µM).
Take `O=C1C=C[C@@](O)(CO)[C@H]1c1ccc(Cl)cc1` (racemic) [Id]: the inhibition of growth at 100 µg/disc in assay [2] was found to be 30%; in assay [3], 0%; in assay [4] it was 45%. Also, the MIC in assay [6] (setting [9]) and in assay [7] was 12 µg/mL (≈ 50.3 µM) throughout.
Consider `CC(=O)O[C@H]1C=CC(=O)[C@@H]1c1ccccc1` (racemic) [Ie], for which the MIC in assay [6] (setting [9]) and in assay [7] was 6.25 µg/mL (≈ 28.9 µM) throughout.
Consider `O=C1C=C[C@@](O)(CO)[C@H]1c1ccccc1` (racemic) [If], for which the results for the inhibition of growth at 100 µg/disc in assay [2], in assay [3] and in assay [4] were 0%, 21% and 57%, respectively.
The corresponding values for `O=C1C=C[C@@](O)(CO)[C@H]1c1ccc(F)cc1` (racemic) [Ig] are 18%, 0% and 55%.
The corresponding values for `COc1ccc([C@H]2C(=O)C=C[C@@]2(O)CO)cc1` (racemic) [Ih] are 0%, 0% and 55%.
On the same counts, the results for `O=C1C=C[C@@](O)(CO)[C@H]1c1ccc2c(c1)OCO2` (racemic) [Ii] are 0%, 0% and 45%.
Turning to `COc1ccc(C2C(=O)C=C[C@@H]2O)cc1` (mixture of isomers) [Ij], the inhibition of growth at 100 µg/disc worked out at 61% in assay [2], 39% in assay [3] and 62% in assay [4].
On the same counts, the results for `COc1cccc(C2C(=O)C=C[C@@H]2O)c1` (mixture of isomers) [Ik] are 48%, 23% and 42%.
The corresponding values for `O=C1C=C[C@H](O)C1c1ccc2ccccc2c1` (mixture of isomers) [Il] are 57%, 50% and 40%.
With `O=C1C=C[C@H](O)C1c1cccc2ccccc12` (mixture of isomers) [Im], the inhibition of growth at 100 µg/disc is 56% in assay [2], 51% in assay [3] and 47% in assay [4].
Regarding `O=C1C=C[C@H](O)[C@H]1c1ccccc1` (relative stereo) [Ia, (4S*,5R*)-4-hydroxy-5-phenyl-cyclopent-2-en-1-one], the “inhibition activity (inhibition zone)” value in assay [1], in assay [4] and in assay [5] was “inhibition activity” in each case. Further, the MIC in assay [6] (setting [9]) was 25 µg/mL (≈ 144 µM); in assay [7] it was more than 50 µg/mL.
